# Measurements taken from ChEMBL document CHEMBL1201862, “PubChem BioAssay data set” (2004).
# Active and inactive are the calls of the source.
# Columns and labels:
# [1] = target: Cytochrome P450 2D6 (Homo sapiens, UniProt P10635);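 also: CYP2D6 member of a cytochrome P450 panel assay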
# [2] = Trypanosoma cruzi growth suppression in host cells – NIH3T3 host cells, beta-gal luminescence, confirmation (AID 2044); format: functional, cell-based;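 also: intracellular parasites grown in NIH/3T3 mouse fibroblasts as host cells; luminescent beta-galactosidase reporter signal from transgenic T. cruzi replicating inside host cells; inhibitors lower the luminescence signal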
# [3] = NIH3T3 cell viability loss – ATP luminescence, mouse fibroblasts, counter-screen, dose response (AID 2010); format: functional, cell-based;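 also: cells exposed to compound for about 90 hours before reading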
# [4] = target: Cytochrome P450 3A4 (Homo sapiens, UniProt P08684);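 also: CYP3A4 tested as one member of a cytochrome P450 panel screen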
# Sequence of Cytochrome P450 3A4 (P08684 whole entry): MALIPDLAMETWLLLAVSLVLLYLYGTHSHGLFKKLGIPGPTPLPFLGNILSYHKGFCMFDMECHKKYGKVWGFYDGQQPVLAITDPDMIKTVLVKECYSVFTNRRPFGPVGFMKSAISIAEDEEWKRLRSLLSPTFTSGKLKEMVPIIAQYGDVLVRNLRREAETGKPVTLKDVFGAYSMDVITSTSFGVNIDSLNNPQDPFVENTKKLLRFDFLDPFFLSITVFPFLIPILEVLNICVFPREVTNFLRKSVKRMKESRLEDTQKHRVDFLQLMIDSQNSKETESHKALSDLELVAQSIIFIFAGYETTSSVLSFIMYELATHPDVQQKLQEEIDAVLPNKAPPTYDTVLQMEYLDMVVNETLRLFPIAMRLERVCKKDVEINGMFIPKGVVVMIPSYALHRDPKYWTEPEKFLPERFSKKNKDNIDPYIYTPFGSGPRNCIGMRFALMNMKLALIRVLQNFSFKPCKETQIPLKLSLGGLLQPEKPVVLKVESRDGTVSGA
# [5] = target: T1, Heat shock factor protein 1 (Mus musculus, UniProt P38532); assay: decrease of HSF1-responsive luciferase luminescence – cell-based, NIH3T3, dose retest, confirmation (AID 2382); format: functional;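 also: NIH3T3 fibroblasts with HSF1-driven luciferase reporter stressed by proteasome inhibitor MG132; luminescence from HSF1-driven luciferase expression after 8 hours of MG132 stress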
# T1 sequence (P38532 whole entry): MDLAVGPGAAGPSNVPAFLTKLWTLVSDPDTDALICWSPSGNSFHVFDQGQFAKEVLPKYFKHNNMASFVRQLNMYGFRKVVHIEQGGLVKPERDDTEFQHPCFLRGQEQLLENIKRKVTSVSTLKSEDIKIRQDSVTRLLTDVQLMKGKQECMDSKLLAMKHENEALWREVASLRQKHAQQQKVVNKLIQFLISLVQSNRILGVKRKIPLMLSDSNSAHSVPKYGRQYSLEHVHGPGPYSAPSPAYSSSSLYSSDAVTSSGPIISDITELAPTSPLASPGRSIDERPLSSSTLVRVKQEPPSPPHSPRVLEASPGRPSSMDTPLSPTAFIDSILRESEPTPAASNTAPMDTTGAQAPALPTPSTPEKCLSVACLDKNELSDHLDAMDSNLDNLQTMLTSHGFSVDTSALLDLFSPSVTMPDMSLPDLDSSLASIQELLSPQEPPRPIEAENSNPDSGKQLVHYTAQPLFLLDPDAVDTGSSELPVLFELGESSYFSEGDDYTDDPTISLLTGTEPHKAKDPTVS
# [6] = target: Cytochrome P450 2C9 (Homo sapiens, UniProt P11712)
# Sequence of Cytochrome P450 2C9 (P11712 whole entry): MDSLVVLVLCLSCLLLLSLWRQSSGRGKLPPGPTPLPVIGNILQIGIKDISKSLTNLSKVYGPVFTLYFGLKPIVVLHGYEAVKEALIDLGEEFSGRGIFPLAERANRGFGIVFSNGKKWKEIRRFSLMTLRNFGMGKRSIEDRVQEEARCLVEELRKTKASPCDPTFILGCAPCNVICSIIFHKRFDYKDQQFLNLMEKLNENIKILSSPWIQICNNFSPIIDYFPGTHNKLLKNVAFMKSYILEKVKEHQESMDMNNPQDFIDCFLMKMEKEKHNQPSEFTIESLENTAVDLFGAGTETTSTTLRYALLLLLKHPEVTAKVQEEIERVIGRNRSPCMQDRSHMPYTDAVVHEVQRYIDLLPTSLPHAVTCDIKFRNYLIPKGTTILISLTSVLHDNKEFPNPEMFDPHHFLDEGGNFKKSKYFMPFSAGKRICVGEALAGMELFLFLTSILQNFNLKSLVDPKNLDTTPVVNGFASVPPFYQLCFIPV
# [7] = target: Cytochrome P450 2C19 (Homo sapiens, UniProt P33261); assay: Cytochrome panel assay with activity outcomes. Panel member name: p450-cyp2c19 Compounds with AC50 equal or less than 10 uM are considered active; format: functional
# Sequence of Cytochrome P450 2C19 (P33261 whole entry): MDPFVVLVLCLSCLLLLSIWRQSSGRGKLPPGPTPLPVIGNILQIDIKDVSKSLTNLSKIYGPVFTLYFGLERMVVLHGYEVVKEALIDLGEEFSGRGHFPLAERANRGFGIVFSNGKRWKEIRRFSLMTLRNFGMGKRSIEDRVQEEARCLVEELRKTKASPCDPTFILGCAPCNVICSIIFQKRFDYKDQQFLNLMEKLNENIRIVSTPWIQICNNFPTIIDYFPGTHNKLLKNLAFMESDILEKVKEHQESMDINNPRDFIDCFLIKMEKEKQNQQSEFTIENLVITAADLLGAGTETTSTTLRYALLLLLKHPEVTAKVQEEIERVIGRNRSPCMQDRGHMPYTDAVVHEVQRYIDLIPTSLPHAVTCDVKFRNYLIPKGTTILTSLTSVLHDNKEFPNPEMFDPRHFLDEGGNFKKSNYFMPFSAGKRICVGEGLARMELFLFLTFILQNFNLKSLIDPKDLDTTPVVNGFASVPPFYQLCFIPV
# Sequence of Cytochrome P450 2D6 (P10635 whole entry): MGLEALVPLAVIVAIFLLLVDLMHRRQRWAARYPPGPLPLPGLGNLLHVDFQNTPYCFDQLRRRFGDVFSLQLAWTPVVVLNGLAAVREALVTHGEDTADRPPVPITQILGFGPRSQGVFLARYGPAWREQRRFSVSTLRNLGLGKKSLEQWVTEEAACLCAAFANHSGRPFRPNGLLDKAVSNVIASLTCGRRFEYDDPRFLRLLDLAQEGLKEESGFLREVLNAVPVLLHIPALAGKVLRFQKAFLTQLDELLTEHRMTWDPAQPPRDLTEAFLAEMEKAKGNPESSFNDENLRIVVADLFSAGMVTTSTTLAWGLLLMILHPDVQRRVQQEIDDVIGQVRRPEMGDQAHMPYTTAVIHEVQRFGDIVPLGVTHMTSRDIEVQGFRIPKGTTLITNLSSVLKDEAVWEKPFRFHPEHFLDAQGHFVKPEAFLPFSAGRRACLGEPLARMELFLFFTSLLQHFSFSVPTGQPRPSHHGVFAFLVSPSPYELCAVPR
SMILES,AC50 [4],AC50 [6],AC50 ([7]; read-out: AC50),other results
COc1ccc(-c2nnn(CC(=O)NCCc3c[nH]c4ccccc34)n2)cc1OC,–,–,–,AC50 [1]: 0.0126 µM (inconclusive)
CCN(CC)S(=O)(=O)c1ccc(C)c(NC(=O)Cn2cnc3cc([N+](=O)[O-])ccc3c2=O)c1,–,–,–,EC50 [2]: 0.406 µM (active); EC50 [3]: > 60 µM (not active)
N#Cc1ccccc1-c1ccc2ncnc(NCc3cccnc3)c2c1,2 µM (inconclusive),–,–,–
CCCn1c(N2CCN(CC(=O)NCc3cccs3)CC2)nc2ccccc21,–,–,–,EC50 [5]: > 195 µM (not active)
CCCCN(Cc1ccccc1)C(=O)c1cnc2n(c1=O)CCS2,–,8.91 µM (inconclusive),–,AC50 [1]: 31.6 µM (inconclusive)
COc1cccc(CN(C)CC2CCCN(CCc3ccccc3C)C2)c1 (stereo not drawn),–,–,–,EC50 [2]: 0.184 µM (active); EC50 [3]: 24.6 µM (active)
Cc1ccccc1-c1cc(N(C)Cc2ccco2)ncn1,–,–,–,AC50 [1]: 39.8 µM (inconclusive)
CCCCN1C(=O)NC(=O)/C(=C(/CC)NCCCN(C)C)C1=O,–,–,–,EC50 [2]: 0.236 µM (active); EC50 [3]: > 60 µM (not active)
CCCCCOc1ccc(Cn2ccnc2)cc1[N+](=O)[O-],–,–,–,EC50 [2]: 2.21 µM (active); EC50 [3]: > 60 µM (not active)
CC[C@H](c1ccccc1)c1cc(C(C)(C)C)cc(C(C)(C)C)c1O,5.01 µM (inconclusive),7.94 µM (inconclusive),–,–
O=S(=O)(N=C(Nc1ccccn1)c1ccccc1)c1ccc(Cl)cc1,1.41 µM (inconclusive),11.2 µM (inconclusive),–,–
Cc1cc(Nc2ccc(Cl)cc2)nc(N)n1,5.62 µM (inconclusive),–,8.91 µM (inconclusive),–
COc1cccc(Cn2c(=O)c(C)nc3cnc(N4CCNCC4)nc32)c1,–,–,39.8 µM (inconclusive),–
N=c1nc(N)nc(N)n1-c1ccc(S(N)(=O)=O)cc1,–,–,–,AC50 [1]: 3.98 µM (inconclusive)
O=C1C=C(Nc2nc(C(=O)O)cc(=O)[nH]2)c2ccccc2C1=O,–,–,3.16 µM (inconclusive),–
Cc1ccc(C)c(N2CCN(C(=O)c3ccc(Cn4c(=O)[nH]c5ccccc5c4=O)cc3)CC2)c1,–,–,–,EC50 [2]: 0.687 µM (active); EC50 [3]: > 60 µM (not active)
CCN(CC)CCNC(=O)Cn1nc(-c2ccc(C)cc2)ccc1=O,–,–,–,AC50 [7]: inconclusive; AC50 [1]: 22.4 µM (inconclusive)
Cc1nc(-c2ccccn2)nc(N(C)c2ccccc2)c1Cl,–,–,–,EC50 [2]: 3.26 µM (active); EC50 [3]: > 60 µM (not active)
COc1ccc(C(=O)Nc2ccc(S(=O)(=O)N3CCOCC3)cc2)cc1OC,–,28.2 µM (inconclusive),8.91 µM (inconclusive),AC50 [1]: 0.00794 µM (inconclusive)
O=C(Nc1cc(Sc2ccccn2)cc([N+](=O)[O-])c1)c1ccc([N+](=O)[O-])cc1,7.94 µM (inconclusive),10 µM (inconclusive),5.01 µM (inconclusive),–
COc1ccc(C2(C(=O)N3CCOCC3)CCCC2)cc1,12.6 µM (inconclusive),–,–,–
N#Cc1cccc(-c2nc(N3CCNCC3)c3ccccc3n2)c1,–,–,–,AC50 [1]: 39.8 µM (inconclusive)
COC(=O)[C@@]1(Cc2ccc(OC)cc2)[C@H]2c3cc(C(=O)N4CCCC4)n(C[C@H](O)CO)c3C[C@H]2CN1C(=O)c1ccccc1,–,31.6 µM (inconclusive),39.8 µM (inconclusive),–
Cc1cc(C(=O)CCl)c(C)n1Cc1ccco1,–,–,–,EC50 [2]: 3.3 µM (active); EC50 [3]: 7.2 µM (active)
CCCCNC(=O)C1CC(=O)N(c2ccc(OC)cc2)C1c1ccc(OC)cc1 (stereo not drawn),–,25.1 µM (inconclusive),25.1 µM (inconclusive),AC50 [1]: 15.8 µM (inconclusive)
COc1ccc(NC(=O)COC(=O)c2c3c(nc4ccccc24)CCCC3)cc1,0.891 µM (inconclusive),–,–,–
O=C(Nc1ccccc1)N1CCCC2(CCN(C(=O)c3ccco3)CC2)C1,15.8 µM (inconclusive),25.1 µM (inconclusive),–,–
Cc1cc(-c2cccs2)nc(-n2cccc2)n1,31.6 µM (inconclusive),–,5.62 µM (inconclusive),–
CC(=O)N(NC(=O)c1ccccc1Cl)C1CC(=O)N(c2ccc(C)cc2)C1=O (stereo not drawn),20 µM (inconclusive),14.1 µM (inconclusive),1 µM (inconclusive),–
CNc1nc(-c2ccccc2CN(C)C)nc2ccccc12,25.1 µM (inconclusive),–,–,–
